Source: patent publication US5871779A, “Treatment of arthropathies with vanadate compounds or analogues thereof” (Mount Sinai Hospital Corporation, priority 1996, dated 1999)
Where “and” joins values, the source holds several entries; their conditions need not be identical. Equal entries are not always repeated.

Tests used:
carcinogenesis = conditions: G. Shklar et al.; cited from earlier work
[1] = system: proliferating chondrocytes; test: viability / proliferation of proliferating chondrocytes (low cell density); type: cell-based; conditions: summary statement
Experimental: In order to compare the effect of orthovanadate on non-proliferating and proliferating chondrocytes, chondrocytes were plated at both high cell density (2×10^6 to 4×10^6 cells/per well on a six well plate) (nonproliferating) and at a lower cell density (5×10^5 to 1×10^6 cells/per well on a six well plate) (proliferating) and then maintained for 48 hours. The cells were then incubated in media (HAMS F12) containing 0-50 μM Orthovanadate for an additional 48 hours. The cells were harvested and the number of viable cells determined.

collagenase = collagenase production by chondrocytes (ELISA); type: cell-based, bovine; conditions: summary statement
Experimental: The effect of orthovanadate and N-acetylcysteine on fos, jun and collagenase expression were examined. Bovine articular chondrocytes were isolated and plated as previously described (Kandel R. A. et al. Biochim. Biophys. Acta. 1053, 130-134, 1990). In order to determine the effect of orthovanadate on IL 1 and PMA (phorbol ester) induced responses, chondrocytes were incubated with orthovanadate (100 μM) for 2 hours before stimulation with IL 1 (10 ng/ml) or PMA ([…]). Collagenase production was determined by incubating chondrocytes for 24 hours with IL 1 or PMA and the cell conditioned medium was assayed for collagenase activity using an ELISA procedure as described previously (Kandel et al. supra). PLA2 activity was measured by incorporating ^3 H-arachidonic acid (^3 H-AA) into the cells and then incubating the cells with medium containing 1 mg/ml BSA, either alone or in the presence of IL 1 or PMA, for 10 min. as previously described (Conquer, J. A. […], Biochim. Biophys. Acta. 1134, 1-6). The amount of ^3 H-AA liberated into the supernatant was determined. To measure PGE2 production, chondrocytes were incubated for 6 hours in Ham's F12 medium, either alone or with IL 1 or PMA. The supernatant was analyzed by RIA using an antibody specific for PGE2 (Dr. S. A. Jones, Mount Sinai Hospital, Toronto, Canada). In order to examine the expression of c-fos and c-jun, chondrocytes were incubated for 1 hour in the presence of IL-1, PMA or AA (3 μM). Chondrocytes were washed in PBS and the total RNA extracted as previously described (Cruz. et al, 1991, Biochem. J. 277, 327-330). RNA samples were run on formaldehyde agarose gels and transferred to nylon membrane for northern analysis using cDNA probes for c-fos and c-jun.

MDAY-2D tumor [2] = test: ammonium bisvanadate and N-acetylcysteine on tumor growth (Example 22); type: in vivo, mice; set-up: Tumour weight: unit not given here; conditions: for Tumour weight: individual mice
Experimental: Forty mice were subcutaneously injected with MDAY-2D tumor cells (8×10^5 /100 μl) on day 1. On day 6, the mice were randomly divided into six groups and injected with the following drugs twice a day: Group 1: 100 μl of PBS; Group 2: 100 μl of 2% NAC(ip) and 0.1 mg ammonium bisvanadate in 100 μl PBS; Group 3: 100 μl of 2% NAC(ip) and 0.25 mg ammonium bisvanadate in 100 μl PBS; Group 4;100 μl of 2% NAC(ip) and 0.5 mg ammonium bisvanadate in 100 μl PBS; Group 5: 100 μl of 2% NAC (ip) and 0.75 mg ammonium bisvanadate in 100 μl PBS and; Group 6: 100 μl of 2% NAC (ip) and 1.0 mg ammonium bisvanadate.
On injection day 11 the mice were sacrificed and the tumors dissected. […] The effective concentrations of the vanadate complexes are from 0.25mg/100 μl and 0.5 mg/100 μl.

MDAY-D2 tumor = MDAY-D2 tumor growth in vivo, orthovanadate, vanadyl sulphate, vanadyl hydroperoxide (Example 6B); set-up: species or system mice
Text: In order to examine the ability of vanadyl compounds to reduce tumor formation, growth and metastases, a specific animal model which allows investigation of all of these processes in the same animal was chosen. This model involves the injection of a metastatic haematopoietic cell line, MDAY-D2, into mice subcutaneously. These cells form a tumor at the site of injection and its size can be easily determined. In addition, these cells metastasize to the liver and metastases can be detected histologically after day 17 to 19. This model provides a very sensitive and reproducible approach to investigate the effect of vanadyl compounds on tumor growth and metastases.
In a separate experiment using the same animal model, the effect of orthovanadate, vanadyl sulphate and vanadyl hydroperoxide administration on tumor growth in vivo was examined. On Day 1, 20 mice were injected with 2×10^5 MDAY-D2 cell subcutaneously. The mice were divided into four groups of five mice. At day 5, the animals were injected subcutaneously with 50 μl of water alone or containing 10 mg/ml of orthovanadate, 10 mg/ml of vanadyl sulphate, or 10 mg/ml of vanadyl hydroperoxide. This treatment was continued daily for 16 days. At day 21, the mice were sacrificed and the tumors dissected and weighed.

MDAY-D2 cells = test: viability of MDAY-D2 cells; type: cell-based, mouse; conditions: 0-50 μM, 48 hours, three forms compared
Experimental: Fos and jun activity are also required for cellular proliferation in many tumor cell lines. Accordingly, the effect of orthovanadate on adherent cells and cell suspensions were examined. MDAY-D2 (a mouse lymphoid cell line grown in suspension) and HTB14 cells (an adherent human primary astrocytoma cell line) were incubated in media containing 0-50 μM orthovanadate for 48 hours. The cells were harvested and the number of viable cells determined.
Three different forms of vanadyl compounds were examined for their effect on viability of cancer cell lines. MDAY-D2 cells were incubated in media containing 0-50 μM orthovanadate, vanadyl sulphate, or vanadyl hydroperoxide for 48 hours. The cells were harvested and the number of viable cells determined. […] Although there were slight differences in sensitivity, the overall cell death was similar.

SK-OV-3 = test: MTT cytotoxicity assay, SK-OV-3; type: cell-based, human; conditions: SK-OV-3, 72 hours
Experimental: (§1) The relative cytotoxicity of various compounds on tumor cell lines was investigated as follows. Cytotoxicity was measured by the MTT microculture tetrazolium colorimetric assay for all cell lines. The relative cytotoxicity of Na3 VO4 and VOSO4 was investigated using the following tumor cell lines: P388(WT) murine leukemia, P388 (ADR) murine leukemia, Lewis murine lung, MCF7 (WT) human breast, […] human lung, K562 human erythroleukemia, A431 human epidermal, LS180 human colon and SK-OV-3 human ovarian. The relative cytotoxicity of doxorubicin, Na3 VO4 and VOSO4 was investigated using the following tumor cell lines: P388(WT) murine leukemia, P388 (ADR) murine leukemia, MCF7(WT) human breast and MCF7 (ADR) human breast. The relative cytotoxicity of BMOV, BEOV and naglivan was investigated using the following tumor cell lines: P388(WT) murine leukemia, P388 (ADR) murine leukemia, Lewis murine lung, H460 human lung, K562 human erythroleukemia, and SK-OV-3 human ovarian.
(§2) The cells were plated (number of cells/well was different from cell line to cell depending on the dividing rate) in a 96-well microculture plate 24 hours prior to the delivery of the vanadium compounds. Serial concentrations of solutions of the test compounds (0.05-100 μM) were delivered to the corresponding wells. A blank column (without cells) and a control column (with cells without vanadium) were left. The cells were incubated for 72 hours continuously. An MTT solution was added to each well after this incubation period and the cells were incubated for 4 more hours for the completion of the dyeing process. The medium was removed find DMSO was added to each well. The absorbance of each well was read with a Titertek Multiskan (310C) spectrophotometer at 570 nm. The percentage of the absorbance of each vanadium concentration relative to the control calculated and the value of the 50% growth inhibition concentration (IC50) was obtained from the % control versus concentration plot. Each assay was repeated three times and the reported IC50 values were the mean of these three runs.

[3] = body weight of mice, BEOV and N-acetylcysteine (Example 21); type: in vivo; set-up: Body weight / Body weight, Average: unit not given here; conditions: for Body weight: individual mice; for death of animal: mouse 5
Experimental: (§3) Forty mice were subcutaneously injected with 100 μl of MDAY-2D tumor cell suspension (8×10^6 /100 μl)on day 1. On day 6, the mice were randomly divided into […] groups and injected following drugs twice a day. The […] groups were as follows: Group 1: 100 μl of PBS; Group 2: 100 μl of 2% NAC(ip) and 0.1 mg BEOV in 100 μl BS; Group 3: 100 μl of 2% NAC(ip) and 0.25 mg BEOV in 100 μl PBS; and Group 4: 100 μl of 2% NAC(ip) and 0.5 mg BEOV in 100 μl PBS. On injection day 9, the mice were sacrificed and the tumors dissected.

MDAY-2D tumor [4] = test: BEOV and N-acetylcysteine on tumor growth (Example 21); type: in vivo, mice; set-up: unit not given here; conditions: for Tumour weight: individual mice
Experimental: The effectiveness of BEOV in reducing tumor growth was investigated and the effective concentration required for inhibiting tumor growth was determined as follows.
as §3

H460 = test: MTT cytotoxicity assay, H460; type: cell-based, human; conditions: H460, 72 hours
Experimental: as §1, §2

P388 (ADR) = test: MTT cytotoxicity assay, P388 (ADR); type: cell-based, murine; conditions: P388 (ADR), 72 hours; read-out: IC50 Value
Experimental: as §1, §2

P388 (WT) = test: MTT cytotoxicity assay, P388 (WT); type: cell-based, murine; conditions: P388 (WT), 72 hours; read-out: IC50 Value
Experimental: as §1, §2

K562 = test: MTT cytotoxicity assay, K562; type: cell-based, human; conditions: K562, 72 hours
Experimental: as §1
as §2, with “Serial concentrations of solutions of the test compounds (0.05-100 μM) were delivered to the corresponding wells.” left out

Lewis lung = test: MTT cytotoxicity assay, Lewis lung; type: cell-based, murine; conditions: 72 hours
Experimental: as §1, §2

Q: For `CC1=C(/C=C/C(C)=C/C=C/C(C)=C/C=C/C=C(C)/C=C/C=C(C)/C=C/C2=C(C)CCCC2(C)C)C(C)(C)CCC1` [β-carotene], which anticancer activity (carcinogenesis) is on record?
A: anticancer activity

Q: Which anticancer activity (carcinogenesis) does the source give for vitamin E here?
A: anticancer activity

Q: Which anticancer activity (carcinogenesis) does the source give for `N[C@@H](CCC(=O)N[C@@H](CS)C(=O)NCC(=O)O)C(=O)O` [glutathione] here?
A: anticancer activity

Q: With n-tocopherol as the compound, how does the anticancer activity (carcinogenesis) read?
A: anticancer activity

Q: Which “proliferation of cells, such as chondrocytes” value [1] does the source give for ammonium bis vanadate [ABOV] here?
A: inhibit

Q: And the “production of metalloproteases, such as collagenase” value (collagenase)?
A: inhibit

Q: And the Tumour weight (MDAY-2D tumor [2]; 0.1 mg ABOV twice a day + 2% NAC ip)?
A: 0.62 and 0.19 and 0.74 and 0.53 and 0.32 and 0.50

Q: And the Tumour weight (MDAY-2D tumor [2]; 0.25 mg ABOV twice a day + 2% NAC ip)?
A: 0.25 and 0.33 and 0.54 and 0.20 and 0.0 and 0.18

Q: And the Tumour weight (MDAY-2D tumor [2]; 0.5 mg ABOV twice a day + 2% NAC ip)?
A: 0.21 and 0.50 and 0.07 and 0.34 and 0.0

Q: What about the death of animals (MDAY-2D tumor [2]; 0.75 mg ABOV twice a day + 2% NAC ip) of the same compound?
A: died

Q: And the death of animals (MDAY-2D tumor [2]; 1.0 mg ABOV twice a day + 2% NAC ip)?
A: died

Q: What about the “inhibition of tumor growth” value (MDAY-2D tumor [2]; with NAC) of the same compound?
A: inhibited the tumor growth

Q: For vanadyl hydroperoxide, which animal deaths (MDAY-D2 tumor; groups of five, 10 mg/ml, 50 μl daily s.c.) is on record?
A: all five died

Q: And the “efficacy in reducing tumor growth” value (MDAY-D2 tumor; mouse, in vivo)?
A: too toxic to evaluate its efficacy

Q: What about the “killing of MDAY-D2 cells” value (MDAY-D2 cells) of the same compound?
A: equally effective

Q: Which IC50 (SK-OV-3) does the source give for `CCc1occc(=O)c1[O][V](=[O])[O]c1c(CC)occc1=O` [BEOV, bis(ethylmaltolato) oxovanadium] here?
A: 2.6 µM

Q: What about the “proliferation of cells, such as chondrocytes” value [1] of the same compound?
A: inhibit

Q: And the “Body weight, Average” value ([3]; 0.1 mg BEOV + 2% NAC)?
A: 16.5

Q: What about the Body weight ([3]; 0.1 mg BEOV + 2% NAC) of the same compound?
A: 17.8 and 15.5 and 15.9 and 16.8

Q: What about the death of animal ([3]; 0.1 mg BEOV + 2% NAC) of the same compound?
A: died

Q: What about the “Body weight, Average” value ([3]; 0.25 mg BEOV + 2% NAC) of the same compound?
A: 16.02

Q: And the Body weight ([3]; 0.25 mg BEOV + 2% NAC)?
A: 15.9 and 15.7 and 16.9 and 15.4 and 16.2

Q: And the “Body weight, Average” value ([3]; 0.5 mg BEOV + 2% NAC)?
A: 15.25

Q: What about the Body weight ([3]; 0.5 mg BEOV + 2% NAC) of the same compound?
A: 13.7 and 13.9 and 16 and 17.4

Q: What about the death of animal ([3]; 0.5 mg BEOV + 2% NAC) of the same compound?
A: died

Q: What about the “production of metalloproteases, such as collagenase” value (collagenase) of the same compound?
A: inhibit

Q: What about the “Tumour weight, Average” value (MDAY-2D tumor [4]; 0.1 mg BEOV + 2% NAC) of the same compound?
A: 0.82

Q: And the Tumour weight (MDAY-2D tumor [4]; 0.1 mg BEOV twice a day + 2% NAC ip)?
A: 0.9 and 0.6 and 0.8 and 1.0

Q: What about the “Tumour weight, Average” value (MDAY-2D tumor [4]; 0.25 mg BEOV + 2% NAC) of the same compound?
A: 0.08

Q: What about the Tumour weight (MDAY-2D tumor [4]; 0.25 mg BEOV twice a day + 2% NAC ip) of the same compound?
A: 0.28 and 0.0 and 0.12

Q: What about the “Tumour weight, Average” value (MDAY-2D tumor [4]; 0.5 mg BEOV + 2% NAC) of the same compound?
A: 0.03

Q: And the Tumour weight (MDAY-2D tumor [4]; 0.5 mg BEOV twice a day + 2% NAC ip)?
A: 0.1 and 0.0

Q: What about the IC50 (H460) of the same compound?
A: 4.4 µM

Q: And the IC50 (P388 (ADR))?
A: 39.8 µM

Q: What about the IC50 (P388 (WT)) of the same compound?
A: 82.6 µM

Q: What about the IC50 (K562) of the same compound?
A: 374 µM

Q: And the IC50 (Lewis lung)?
A: 97.4 µM
